Reference: patent US8461150B2, “Chalcone linked pyrrolo[2,1-c][1, 4]benzodiazepine hybrids as potential anticancer agents and process for the preparation thereof” (Council of Scientific & Industrial Research, priority 2008, dated 2013)

Tests used:
Experiment in all cases: NCI in vitro anticancer screen, SRB assay, 48 h, panel average
Type in all cases: cell-based, human
Conditions in all cases: average of six to eight cell lines, 48 h exposure
[1] = system: Non-small cell lung cancer cell lines
Description: (§1) Biological Activity: The in vitro cell line studies were carried out at the National Cancer Institute, Maryland, USA.
(§2) Cytotoxicity: • The compounds 6b) 7-Methoxy-8-{4-[1-(4-fluorophenyl)-3-(4-hydroxy-3-methoxyphenyl)-2-propen-1-one]butyl}-oxy-(11aS)-1,2,3,11a-5H-pyrrolo[2,1-c][1,4]benzodiazepin-5-one; • (6c) 7-Methoxy-8-{5-[1-(4-fluorophenyl)-3-(4-hydroxy-3-methoxyphenyl)-2-propen-1-one]pentyl}-oxy-(11aS)-1,2,3,11a-5H-pyrrolo[2,1-c][1,4]benzodiazepin-5-one; • (6g) 7-Methoxy-8-{3-[1-(2-hydroxyphenyl)-3-(4-hydroxy-3-methoxyphenyl)-2-propen-1-one]propyl}-oxy-(11aS)-1,2,3,11a-5H-pyrrolo[2,1-c][1,4]benzodiazepin-5-one; • (10a) 7-Methoxy-8-{3-[3-(4-hydroxy-3-methoxyphenyl)-1-(2,4-dimethyl-3-quinolyl)-2-propen-1-one]propyl}-oxy-(11aS)-1,2,3,11a-5H-pyrrolo[2,1-c][1,4]benzodiazepin-5-one • (10b) 7-Methoxy-8-{4-[3-(4-hydroxy-3-methoxyphenyl)-1-(2,4-dimethyl-3-quinolyl)-2-propen-1-one]butyl}-oxy-(11aS)-1,2,3,11a-5H-pyrrolo[2,1-c][1,4]benzodiazepin-5-one; were evaluated for in vitro anticancer activity against […] derived from […] (leukemia, ovarian, renal, melanoma, CNS, colon, prostate, lung, cervix and breast cancer) as shown in (Table 1, 2 and 3)
(§3) 6b, 6c, 6g, 10a and 10b were evaluated for in vitro anticancer activity against sixty human tumour cells derived from nine cancer types (leukemia, non-small-cell lung, colon, CNS, melanoma, ovarian, prostate, renal and breast cancer) as shown in (Table 1 and 2). For the compound, dose response curves for each cell line were measured at a minimum of five concentrations at 10 fold dilutions. A protocol of 48 h continuous drug exposure was used and a sulforhodamine B (SRB) protein assay was used to estimate cell viability or growth. The concentration causing 50% cell growth inhibition (GI50), total cell growth inhibition (TGI 0% growth) and 50% cell death (LC50, −50% growth) compared with the control was calculated.
(§4) Each cancer type represents the average of six to eight different cancer cell lines.

Breast cancer cell lines = system: Breast cancer cell lines
Description: as §1, §2, §3, §4

[2] = system: Prostate cancer cell lines
Description: as §1, §2, §3, §4

Renal cancer cell lines = system: Renal cancer cell lines
Description: as §1, §2, §3, §4

[3] = system: Leukemia cancer cell lines
Description: as §1, §2, §3, §4

[4] = system: Melanoma cancer cell lines
Description: as §1, §2, §3, §4

[5] = system: Ovarian cancer cell lines
Description: as §1, §2, §3, §4

Colon cancer cell lines = system: Colon cancer cell lines
Description: as §1, §2, §3, §4

CNS cancer cell lines = system: CNS cancer cell lines
Description: as §1, §2, §3, §4

Compound: COc1cc(C=CC(=O)c2ccc(F)cc2)ccc1OCCCCOc1cc2c(cc1OC)C(=O)N1CCC[C@H]1C=N2 [6b, 7-Methoxy-8-{4-[1-(4-fluorophenyl)-3-(4-hydroxy-3-methoxyphenyl)-2-propen-1-one]butyl}-oxy-(11aS)-1,2,3,11a-5H-pyrrolo[2,1-c][1,4]benzodiazepin-5-one]
- Log GI50 (concentration in mol/L causing 50% growth inhibition) [1]: −6.84 mol/L
- Log GI50 (concentration in mol/L causing 50% growth inhibition) (Breast cancer cell lines): −6.57 mol/L
- Log GI50 (concentration in mol/L causing 50% growth inhibition) [2]: −5.63 mol/L
- Log GI50 (concentration in mol/L causing 50% growth inhibition) (Renal cancer cell lines): −6.67 mol/L
- Log GI50 (concentration in mol/L causing 50% growth inhibition) [3]: −6.84 mol/L
- Log GI50 (concentration in mol/L causing 50% growth inhibition) [4]: −6.65 mol/L
- Log GI50 (concentration in mol/L causing 50% growth inhibition) [5]: −5.56 mol/L
- Log GI50 (concentration in mol/L causing 50% growth inhibition) (Colon cancer cell lines): −6.53 mol/L
- Log GI50 (concentration in mol/L causing 50% growth inhibition) (CNS cancer cell lines): −5.91 mol/L

Compound: COc1cc(C=CC(=O)c2ccc(F)cc2)ccc1OCCCCCOc1cc2c(cc1OC)C(=O)N1CCC[C@H]1C=N2 [6c, 7-Methoxy-8-{5-[1-(4-fluorophenyl)-3-(4-hydroxy-3-methoxyphenyl)-2-propen-1-one]pentyl}-oxy-(11aS)-1,2,3,11a-5H-pyrrolo[2,1-c][1,4]benzodiazepin-5-one]
- Log GI50 (concentration in mol/L causing 50% growth inhibition) [1]: −6.38 mol/L
- Log GI50 (concentration in mol/L causing 50% growth inhibition) (Breast cancer cell lines): −6.31 mol/L
- Log GI50 (concentration in mol/L causing 50% growth inhibition) [2]: −5.05 mol/L
- Log GI50 (concentration in mol/L causing 50% growth inhibition) (Renal cancer cell lines): −6.39 mol/L
- Log GI50 (concentration in mol/L causing 50% growth inhibition) [3]: −6.59 mol/L
- Log GI50 (concentration in mol/L causing 50% growth inhibition) [4]: −6.38 mol/L
- Log GI50 (concentration in mol/L causing 50% growth inhibition) [5]: −4.60 mol/L
- Log GI50 (concentration in mol/L causing 50% growth inhibition) (Colon cancer cell lines): −6.76 mol/L
- Log GI50 (concentration in mol/L causing 50% growth inhibition) (CNS cancer cell lines): −5.68 mol/L

Compound: COc1cc(C=CC(=O)c2c(C)nc3ccccc3c2C)ccc1OCCCOc1cc2c(cc1OC)C(=O)N1CCC[C@H]1C=N2 [10a, 7-Methoxy-8-{3-[3-(4-hydroxy-3-methoxyphenyl)-1-(2,4-dimethyl-3-quinolyl)-2-propen-1-one]propyl}-oxy-(11aS)-1,2,3,11a-5H-pyrrolo[2,1-c][1,4]benzodiazepin-5-one]
- Log GI50 (concentration in mol/L causing 50% growth inhibition) [1]: −6.79 mol/L
- Log GI50 (concentration in mol/L causing 50% growth inhibition) (Breast cancer cell lines): −6.31 mol/L
- Log GI50 (concentration in mol/L causing 50% growth inhibition) [2]: −5.05 mol/L
- Log GI50 (concentration in mol/L causing 50% growth inhibition) (Renal cancer cell lines): −6.39 mol/L
- Log GI50 (concentration in mol/L causing 50% growth inhibition) [3]: −6.88 mol/L
- Log GI50 (concentration in mol/L causing 50% growth inhibition) [4]: −6.38 mol/L
- Log GI50 (concentration in mol/L causing 50% growth inhibition) [5]: −5.10 mol/L
- Log GI50 (concentration in mol/L causing 50% growth inhibition) (Colon cancer cell lines): −6.76 mol/L
- Log GI50 (concentration in mol/L causing 50% growth inhibition) (CNS cancer cell lines): −6.61 mol/L

Compound: COc1cc(C=CC(=O)c2c(C)nc3ccccc3c2C)ccc1OCCCCOc1cc2c(cc1OC)C(=O)N1CCC[C@H]1C=N2 [10b, 7-Methoxy-8-{4-[3-(4-hydroxy-3-methoxyphenyl)-1-(2,4-dimethyl-3-quinolyl)-2-propen-1-one]butyl}-oxy-(11aS)-1,2,3,11a-5H-pyrrolo[2,1-c][1,4]benzodiazepin-5-one]
- Log GI50 (concentration in mol/L causing 50% growth inhibition) [1]: −6.87 mol/L
- Log GI50 (concentration in mol/L causing 50% growth inhibition) (Breast cancer cell lines): −6.52 mol/L
- Log GI50 (concentration in mol/L causing 50% growth inhibition) [2]: −5.85 mol/L
- Log GI50 (concentration in mol/L causing 50% growth inhibition) (Renal cancer cell lines): −6.17 mol/L
- Log GI50 (concentration in mol/L causing 50% growth inhibition) [3]: −6.94 mol/L
- Log GI50 (concentration in mol/L causing 50% growth inhibition) [4]: −6.59 mol/L
- Log GI50 (concentration in mol/L causing 50% growth inhibition) [5]: −5.28 mol/L
- Log GI50 (concentration in mol/L causing 50% growth inhibition) (Colon cancer cell lines): −6.41 mol/L
- Log GI50 (concentration in mol/L causing 50% growth inhibition) (CNS cancer cell lines): −6.16 mol/L
